Data reported in the supplement of paper PMC10307832.

Assays:
Assay in all cases: relative viability (nuclei count vs DMSO), 5 days (fraction); higher = more cells survive
NCI-H2405 = tested on: NCI-H2405
Procedure, shortened: (§1)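 Lung cancer cell lines were pin-tool dosed in 1536-well plates on the day after seeding, with either a lone drug or a fixed anchor-drug dose plus five library-drug doses (not always all listed) in √10 steps. Nuclei were counted on 4× images after 5 days. Relative viability is the ratio of treated-well to vehicle-well nuclei counts, with each value a median of duplicate plates.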

LU99A = tested on: LU99A
Procedure, shortened: as §1

NCI-H3122 = tested on: NCI-H3122
Procedure, shortened: as §1

NCI-H1666 = tested on: NCI-H1666
Procedure, shortened: as §1

HCC-15 = tested on: HCC-15
Procedure, shortened: as §1

NCI-H358 = tested on: NCI-H358
Procedure, shortened: as §1

NCI-H1975 = tested on: NCI-H1975
Procedure, shortened: as §1

HARA = tested on: HARA
Procedure, shortened: as §1

NCI-H2228 = tested on: NCI-H2228
Procedure, shortened: as §1

IA-LM = tested on: IA-LM
Procedure, shortened: as §1

NCI-H1792 = tested on: NCI-H1792
Procedure, shortened: as §1

NCI-H2347 = tested on: NCI-H2347
Procedure, shortened: as §1

NCI-H1793 = tested on: NCI-H1793
Procedure, shortened: as §1

NCI-H1703 = tested on: NCI-H1703
Procedure, shortened: as §1

NCI-H460 = tested on: NCI-H460
Procedure, shortened: as §1

LXF-289 = tested on: LXF-289
Procedure, shortened: as §1

PC-3 [JPC-3] = tested on: PC-3 [JPC-3]
Procedure, shortened: as §1

HCC-366 = tested on: HCC-366
Procedure, shortened: as §1

NCI-H1944 = tested on: NCI-H1944
Procedure, shortened: as §1

NCI-H838 = tested on: NCI-H838
Procedure, shortened: as §1

SW 1573 = tested on: SW 1573
Procedure, shortened: as §1

NCI-H650 = tested on: NCI-H650
Procedure, shortened: as §1

NCI-H1734 = tested on: NCI-H1734
Procedure, shortened: as §1

NCI-H661 = tested on: NCI-H661
Procedure, shortened: as §1

**Q.** `Nc1cccc2c1CN(C1CCC(=O)NC1=O)C2=O` (centres undefined) [Lenalidomide] + CS(=O)(=O)N1CCN(Cc2cc3nc(-c4cccc5[nH]ncc45)nc(N4CCOCC4)c3s2)CC1 [Pictilisib] (partner 1 µM) was tested. Which relative viability (NCI-H2405; first compound 0.253 µM) did it give?
**A.** 0.423

**Q.** What about the relative viability (NCI-H2405; first compound 0.8 µM) of the same compound?
**A.** 0.438

**Q.** What about the relative viability (NCI-H2405; first compound 2.53 µM) of the same compound?
**A.** 0.37

**Q.** And the relative viability (NCI-H2405; first compound 8 µM)?
**A.** 0.269

**Q.** And the relative viability (LU99A; first compound 0.253 µM)?
**A.** 0.31

**Q.** And the relative viability (LU99A; first compound 0.8 µM)?
**A.** 0.324

**Q.** And the relative viability (LU99A; first compound 2.53 µM)?
**A.** 0.371

**Q.** What about the relative viability (LU99A; first compound 8 µM) of the same compound?
**A.** 0.238

**Q.** What about the relative viability (NCI-H3122; first compound 0.253 µM) of the same compound?
**A.** 0.653

**Q.** And the relative viability (NCI-H3122; first compound 0.8 µM)?
**A.** 0.733

**Q.** What about the relative viability (NCI-H3122; first compound 2.53 µM) of the same compound?
**A.** 0.589

**Q.** And the relative viability (NCI-H3122; first compound 8 µM)?
**A.** 0.414

**Q.** What about the relative viability (NCI-H1666; first compound 0.253 µM) of the same compound?
**A.** 0.471

**Q.** What about the relative viability (NCI-H1666; first compound 0.8 µM) of the same compound?
**A.** 0.372

**Q.** What about the relative viability (NCI-H1666; first compound 2.53 µM) of the same compound?
**A.** 0.495

**Q.** And the relative viability (NCI-H1666; first compound 8 µM)?
**A.** 0.488

**Q.** What about the relative viability (HCC-15; first compound 0.253 µM) of the same compound?
**A.** 0.744

**Q.** What about the relative viability (HCC-15; first compound 2.53 µM) of the same compound?
**A.** 0.768

**Q.** And the relative viability (HCC-15; first compound 8 µM)?
**A.** 0.668

**Q.** What about the relative viability (NCI-H358; first compound 0.253 µM) of the same compound?
**A.** 0.399

**Q.** And the relative viability (NCI-H358; first compound 0.8 µM)?
**A.** 0.428

**Q.** And the relative viability (NCI-H358; first compound 2.53 µM)?
**A.** 0.384

**Q.** And the relative viability (NCI-H358; first compound 8 µM)?
**A.** 0.302

**Q.** And the relative viability (NCI-H1975; first compound 0.253 µM)?
**A.** 0.316

**Q.** And the relative viability (NCI-H1975; first compound 0.8 µM)?
**A.** 0.228

**Q.** And the relative viability (NCI-H1975; first compound 2.53 µM)?
**A.** 0.278

**Q.** And the relative viability (NCI-H1975; first compound 8 µM)?
**A.** 0.223

**Q.** And the relative viability (HARA; first compound 0.253 µM)?
**A.** 0.367

**Q.** And the relative viability (HARA; first compound 0.8 µM)?
**A.** 0.327

**Q.** And the relative viability (HARA; first compound 2.53 µM)?
**A.** 0.438

**Q.** What about the relative viability (HARA; first compound 8 µM) of the same compound?
**A.** 0.206

**Q.** And the relative viability (NCI-H2228; first compound 0.253 µM)?
**A.** 0.42

**Q.** What about the relative viability (NCI-H2228; first compound 0.8 µM) of the same compound?
**A.** 0.714

**Q.** And the relative viability (NCI-H2228; first compound 2.53 µM)?
**A.** 0.724

**Q.** And the relative viability (NCI-H2228; first compound 8 µM)?
**A.** 0.355

**Q.** What about the relative viability (IA-LM; first compound 0.253 µM) of the same compound?
**A.** 0.37

**Q.** What about the relative viability (IA-LM; first compound 0.8 µM) of the same compound?
**A.** 0.375

**Q.** What about the relative viability (IA-LM; first compound 2.53 µM) of the same compound?
**A.** 0.338

**Q.** What about the relative viability (IA-LM; first compound 8 µM) of the same compound?
**A.** 0.359

**Q.** And the relative viability (NCI-H1792; first compound 0.253 µM)?
**A.** 0.298

**Q.** And the relative viability (NCI-H1792; first compound 0.8 µM)?
**A.** 0.192

**Q.** What about the relative viability (NCI-H1792; first compound 2.53 µM) of the same compound?
**A.** 0.264

**Q.** What about the relative viability (NCI-H1792; first compound 8 µM) of the same compound?
**A.** 0.184

**Q.** And the relative viability (NCI-H2347; first compound 0.253 µM)?
**A.** 0.396

**Q.** What about the relative viability (NCI-H2347; first compound 0.8 µM) of the same compound?
**A.** 0.634

**Q.** What about the relative viability (NCI-H2347; first compound 2.53 µM) of the same compound?
**A.** 0.602

**Q.** What about the relative viability (NCI-H2347; first compound 8 µM) of the same compound?
**A.** 0.49

**Q.** What about the relative viability (NCI-H1793; first compound 0.253 µM) of the same compound?
**A.** 0.554

**Q.** What about the relative viability (NCI-H1793; first compound 0.8 µM) of the same compound?
**A.** 0.289

**Q.** And the relative viability (NCI-H1793; first compound 2.53 µM)?
**A.** 0.409

**Q.** And the relative viability (NCI-H1793; first compound 8 µM)?
**A.** 0.228

**Q.** What about the relative viability (NCI-H1703; first compound 0.253 µM) of the same compound?
**A.** 0.245

**Q.** What about the relative viability (NCI-H1703; first compound 0.8 µM) of the same compound?
**A.** 0.27

**Q.** What about the relative viability (NCI-H1703; first compound 2.53 µM) of the same compound?
**A.** 0.287

**Q.** And the relative viability (NCI-H1703; first compound 8 µM)?
**A.** 0.267

**Q.** What about the relative viability (NCI-H460; first compound 0.253 µM) of the same compound?
**A.** 0.363

**Q.** And the relative viability (NCI-H460; first compound 0.8 µM)?
**A.** 0.263

**Q.** What about the relative viability (NCI-H460; first compound 2.53 µM) of the same compound?
**A.** 0.25

**Q.** And the relative viability (NCI-H460; first compound 8 µM)?
**A.** 0.264

**Q.** What about the relative viability (LXF-289; first compound 0.253 µM) of the same compound?
**A.** 0.835

**Q.** And the relative viability (LXF-289; first compound 0.8 µM)?
**A.** 0.827

**Q.** What about the relative viability (LXF-289; first compound 2.53 µM) of the same compound?
**A.** 0.864

**Q.** What about the relative viability (LXF-289; first compound 8 µM) of the same compound?
**A.** 0.845

**Q.** And the relative viability (PC-3 [JPC-3]; first compound 0.253 µM)?
**A.** 0.781

**Q.** And the relative viability (PC-3 [JPC-3]; first compound 0.8 µM)?
**A.** 0.609

**Q.** And the relative viability (PC-3 [JPC-3]; first compound 2.53 µM)?
**A.** 0.98

**Q.** And the relative viability (PC-3 [JPC-3]; first compound 8 µM)?
**A.** 0.734

**Q.** And the relative viability (HCC-366; first compound 0.253 µM)?
**A.** 0.131

**Q.** What about the relative viability (HCC-366; first compound 0.8 µM) of the same compound?
**A.** 0.108

**Q.** What about the relative viability (HCC-366; first compound 2.53 µM) of the same compound?
**A.** 0.172

**Q.** What about the relative viability (HCC-366; first compound 8 µM) of the same compound?
**A.** 0.157

**Q.** What about the relative viability (NCI-H1944; first compound 0.253 µM) of the same compound?
**A.** 0.382

**Q.** And the relative viability (NCI-H1944; first compound 0.8 µM)?
**A.** 0.309

**Q.** And the relative viability (NCI-H1944; first compound 2.53 µM)?
**A.** 0.319

**Q.** And the relative viability (NCI-H1944; first compound 8 µM)?
**A.** 0.287

**Q.** What about the relative viability (NCI-H838; first compound 0.253 µM) of the same compound?
**A.** 0.505

**Q.** And the relative viability (NCI-H838; first compound 0.8 µM)?
**A.** 0.318

**Q.** And the relative viability (NCI-H838; first compound 2.53 µM)?
**A.** 0.518

**Q.** What about the relative viability (NCI-H838; first compound 8 µM) of the same compound?
**A.** 0.387

**Q.** And the relative viability (SW 1573; first compound 0.253 µM)?
**A.** 0.518

**Q.** What about the relative viability (SW 1573; first compound 0.8 µM) of the same compound?
**A.** 0.483

**Q.** What about the relative viability (SW 1573; first compound 2.53 µM) of the same compound?
**A.** 0.504

**Q.** And the relative viability (SW 1573; first compound 8 µM)?
**A.** 0.524

**Q.** And the relative viability (NCI-H650; first compound 0.253 µM)?
**A.** 0.822

**Q.** What about the relative viability (NCI-H650; first compound 2.53 µM) of the same compound?
**A.** 0.911

**Q.** What about the relative viability (NCI-H650; first compound 8 µM) of the same compound?
**A.** 0.739

**Q.** And the relative viability (NCI-H1734; first compound 0.253 µM)?
**A.** 0.438

**Q.** What about the relative viability (NCI-H1734; first compound 0.8 µM) of the same compound?
**A.** 0.489

**Q.** And the relative viability (NCI-H1734; first compound 2.53 µM)?
**A.** 0.465

**Q.** And the relative viability (NCI-H1734; first compound 8 µM)?
**A.** 0.329

**Q.** And the relative viability (NCI-H661; first compound 0.253 µM)?
**A.** 0.59

**Q.** And the relative viability (NCI-H661; first compound 0.8 µM)?
**A.** 0.369

**Q.** And the relative viability (NCI-H661; first compound 2.53 µM)?
**A.** 0.44

**Q.** What about the relative viability (NCI-H661; first compound 8 µM) of the same compound?
**A.** 0.329
